This passage reports EC50 results from PubChem BioAssay AID1241 (SRMLSC, 2008).

pEC50: −log10 of the molar value.

For orientation: pEC50 means the EC50 on a negative log10 scale, so that one unit is a factor of ten.

This assay in a line: compounds inducing NF-kB luciferase expression – cell-based, SH-SY5Y, dose response (AID 1241). The following applies: SH-SY5Y NF-kB promoter luciferase reporter, fold induction. In general terms: A reporter such as luciferase makes a cellular process visible.
For the molecule `Cn1cccc1C(=O)OCc1csc(-c2ccccc2)n1`, the negative-log EC50 (pEC50) was 6.11.
As for `N#CC1(c2ccc(NC(=O)c3ccccc3F)cc2)CCCC1`, the figure is 5.97.
As for `CCOC(=O)c1nn(-c2ccc(Br)cc2)cc1C(=O)c1cccc2ccccc12`, the figure is 5.52; as for `CC(C)(C)C(=O)Nc1nc(-c2ccc3c(c2)OCO3)cs1`, 5.57.
On to `COc1cc2c(cc1NC(=O)C1CCCO1)oc1ccccc12` (centres undefined), for which the pEC50 was 5.24.
Then `CCC(=O)Oc1ccc(-c2cnc3ccccc3n2)cc1`, with 4.67; and `Cc1ccc(-c2nc3cc(Cl)ccc3o2)cc1`, with 5.76; and `COc1ccc(/C=N/N=C(\N)c2nonc2N)cc1`, with 6.57.
As for `CN1CCN(Cc2cc(COCc3ccccc3)c3cccnc3c2O)CC1`, the figure is 4.96; as for `Oc1cccc(-c2nc3ccccc3s2)c1`, 5.39; as for `Cc1ccc(OCc2nc(-c3cccs3)no2)c([N+](=O)[O-])c1`, 6.11.
In the case of `Cn1cccc1C(=O)C(=O)Nc1ccccc1`, the pEC50 is 4.60.
As for `COc1ccc(N=Cc2sc(O)c3ccccc23)cc1`, the figure is 6.00; as for `NC(=O)c1ccc(-c2ncc(-c3ccccc3)o2)cc1`, 6.39; as for `O=C(Nc1nc2ccccc2s1)NC1CCCCC1`, 5.62.
As for `CCc1ccc2oc(-c3ccc(N)cc3)nc2c1`, the figure is 6.47; as for `O=C(N/N=C/c1cccc(F)c1)c1csc2c1CCCC2`, 4.66.
Then `Cc1cnc(C(=O)Nc2ccc3c(c2)CCC3)cn1`, with 5.61; and `O=C(N/N=C/C(Br)=C/c1ccccc1)c1cccs1`, with 4.74; and `CCOC(=O)c1ccc(Nc2ncccc2[N+](=O)[O-])cc1`, with 5.55.
In the case of `CC(C)(C)c1ccc(C(=O)Nc2cnccn2)cc1`, the pEC50 is 5.95.
As for `Oc1c(-c2cc(-c3ccco3)[nH]n2)ccc2ccccc12`, the figure is 5.25.
As to `O=C(Nc1ccc2c(c1)OCO2)c1noc2c1CCCCC2`, the negative logarithm of the EC50 (pEC50) was 5.95.
Turning to `CCCOc1ccc(C(=O)NCCc2ccccc2)cc1`, the pEC50 is 6.19.
As for `Cc1ccccc1Nc1nc(N)nc(CSc2ccc(F)cc2)n1`, the figure is 5.19; as for `C(=N\Nc1ncnc2ccccc12)/c1ccccc1`, 5.39.
As for `CN1/C(=C\C(=O)c2cccs2)Sc2ccccc21`, the figure is 5.89; as for `O=C(/C=C\Nc1ccc2c(c1)OCO2)c1ccc2c(c1)OCO2`, 6.00; as for `Oc1c(C2=NCCNC(C(F)(F)F)=C2)ccc2ccccc12`, 4.75.
In the case of `Cc1cccc(NC(=O)/C=C/c2ccc3c(c2)OCO3)n1`, the pEC50 is 5.60.
Consider `Cc1ccccc1C(=O)O/N=C1\CCS(=O)(=O)c2sccc21`, for which the pEC50 is 5.41.
Then `NC(=O)c1ccccc1N/C=C/C(=O)c1ccc(Cl)cc1`, with 5.29.
As for `N/C(=N\OC(=O)c1ccc(Cl)cc1Cl)c1cccnc1`, the figure is 5.68; as for `Oc1ccc(-c2csc(Nc3ncccn3)n2)cc1`, 5.46; as for `O=C(Nc1ccc(N2CCCC2)c(Cl)c1)c1cccs1`, 5.82.
Then `Cc1ccsc1/C=N/Nc1nc2ccccc2[nH]1`, with 5.08; and `COc1cccc(-c2noc(-c3ccc4c(c3)OCO4)n2)c1`, with 6.30; and `CCOC(=O)C1=C(C)n2c(s/c(=C/c3cccc([N+](=O)[O-])c3)c2=O)=NC1c1ccc(O)c(OC)c1` (centres undefined), with 5.68.
As to `COc1ccc(-c2cn3ccsc3n2)cc1`, the pEC50 was 4.90.
Then `Cc1ccc(O)c(NC(=O)c2noc3c2CCCCC3)c1`, with 5.03; and `COc1ccc2nc(SCC(C)=O)c(C#N)cc2c1`, with 5.72.
Then `O=C(/C=C/Nc1ccccc1)c1ccccc1`, with more than 7.23.
As for `COc1ccc(Nc2nc(-c3cccs3)cs2)c(OC)c1`, the figure is 5.63.
`COc1ccc(C(=O)Nc2cccc(C)c2)cc1`: the pEC50 is 5.21.
Then `Clc1c(CSc2nc3ccccc3o2)nc2sccn12`, with 5.62; and `Cc1ccc(C(=O)c2cc([N+](=O)[O-])ccc2N2CCOCC2)c(C)c1`, with 5.52; and `O=C(N=Nc1c(O)[nH]c2ccccc12)c1cccs1`, with 5.83.
As for `O=C(Nc1ccccn1)c1sc2cccc(F)c2c1Cl`, the figure is 5.75; as for `C/C(N)=C(/C#N)C(=O)CSc1nnc(-c2ccc3c(c2)OCO3)o1`, more than 7.23.
